# Assay results: patent publication US20230303598A1, “BIOINSPIRED LIPID DERIVATIVES AND USES THEREOF” (Ohio State Innovation Foundation, priority 2020, published 2023)
# Test system: Hep3b cells
# Experiment: in vitro mRNA delivery screening of ionizable lipid LNPs with mRNA encoding firefly luciferase
# Format: cell-based
# Conditions: LNPs of compound/DOPE/cholesterol/PEG-lipid at ratios 20:30:40:0.75, 40:30:40:0.75 and 60:30:40:0.75, Hep3b cells (FIGS. 1-3)
# Description: FIG. 1 illustrates the results of in vitro mRNA delivery screening of ionizable lipids in Hep3b cells at a ratio of 20:30:40:0.75 (compound/DOPE/cholesterol/PEG-lipid).
# FIG. 2 illustrates the results of in vitro mRNA delivery screening of ionizable lipids in Hep3b cells at a ratio of 40:30:40:0.75 (compound/DOPE/cholesterol/PEG-lipid).
# FIG. 3 illustrates the results of in vitro mRNA delivery screening of ionizable lipids in Hep3b cells at a ratio of 60:30:40:0.75 (compound/DOPE/cholesterol/PEG-lipid).
# Phosphates and phosporamide lipid-like compounds First, forty ionizable lipids were synthesized. Then, these ionizable lipids were formulated with DOPE/cholesterol/PEG-lipid at three different ratios (20:30:40:0.75, 40:30:40:0.75, and 60:30:40:0.75) to prepare lipid nanoparticles (LNPs) and screened in Hep3b cells using mRNA-encoding firefly luciferase.
structure (smiles),measurement,value
CCCCCCCC/C=C\CCCCCCCCOP(=O)(OCCCCCCCC/C=C\CCCCCCCC)OCCN(C)C [ZYB20200113-1],mRNA delivery effectiveness,more effective for mRNA delivery than other ionizable lipids
